Test results: patent US9636307B2, “Oral pharmaceutical composition comprising taste-masked N-acetylcysteine” (HERMES ARZNEIMITTEL GMBH, priority 2013, dated 2017)

Key:
[1] = Stability testing of N-acetylcysteine by headspace gas chromatography; assay type: physicochemical
[2] = Decomposition during processing of the material (sulphurous smell); assay type: physicochemical; conditions: between about 40 and 48° C. compared to working at above 50° C.; evident by reduced sulphurous smell

sulphur species detectable by headspace gas chromatography ([1]; sample treated at 40° C. for 2 hours): no sulphur species are detectable
decomposition of N-acetylcysteine [2]: notably suppressed
Compound: CC(=O)N[C@@H](CS)C(=O)O [N-acetylcysteine, N-acetyl-L-cysteine]
sulphur species detectable by headspace gas chromatography ([1]; sample subjected to 60° C. for 2 hours): two sulphurous species, acetyl mercaptane and s-ethyl ethanthioate, were detected
